From patent publication US20250313574A1, “SIALIC ACID DERIVATIVES AND METHODS OF USING SAME” (EISAI R&D MANAGEMENT CO., LTD., priority 2022, published 2025)

Key:
[1] = biological target: Recombinant Human Siglec-3/CD33 protein (His-CD33) (Homo sapiens (Human), UniProt P20138); experiment: Differential scanning fluorimetry (DSF) thermal shift assay; format: binding
[2] = biological target: Recombinant human CD33 protein (Homo sapiens (Human), UniProt P20138); experiment: CD33 competitive binding assay for HTS drug screen (fluorescent multivalent sialic acid probe)
Recombinant human CD33 protein, sequence (P20138 18-259): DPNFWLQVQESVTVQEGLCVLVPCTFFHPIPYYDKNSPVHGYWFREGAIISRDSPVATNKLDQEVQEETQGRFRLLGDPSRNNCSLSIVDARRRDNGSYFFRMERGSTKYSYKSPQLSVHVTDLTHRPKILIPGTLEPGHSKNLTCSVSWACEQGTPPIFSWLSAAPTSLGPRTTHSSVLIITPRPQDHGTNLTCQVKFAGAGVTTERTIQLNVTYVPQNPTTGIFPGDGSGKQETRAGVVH
Summary of the method: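 Inhibition was read as reduced retention of a fluorescent multivalent sialic acid complex (final 5 μM neutravidin, 15 μM A-375, 5 μM biotin-4-FITC) on plate-immobilized human CD33. Compound was added first, the probe followed for 30 min at room temperature in PBS with 0.2% Tween-20 and 0.5% BSA, and FITC was measured after a wash.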

[3] = difference in thermal melt of CD33 protein (0.5 μM) with 50 μM compound
[4] = thermal melt shift of 0.5 μM CD33 protein with 50 μM compound

Recombinant Human Siglec-3/CD33 protein (His-CD33), sequence (P20138 18-259): as above

Row | SMILES | DSF (dTmD) [1, 3] [°C] | EC50 [2] [nM] | DSF (dTmD) [1, 4]
1 | CC(=O)N[C@H]1[C@H]2O[C@](C(=O)O)(C/C=C/COC[C@@H](NC(=O)[C@@H]3CCCOC3)COCCCOc3c(C)cc(cc3C)C(=O)NC[C@@H](O)[C@H]2O)C[C@@H]1O [A-336] | 3.6 | 4190 | 
2 | COc1cc(C(=O)NCc2cccc(/C=C/C[C@]3(C(=O)O)C[C@H](O)[C@@H](NC(=O)Cn4cc(C5CCCCC5)nn4)[C@H]([C@H](O)[C@H](O)CNC(=O)c4cc(C)c(O)c(C)c4)O3)c2)ccc1O [A-279] | 4.5 | 10400 | 
3 | CC(=O)N[C@H]1[C@H]([C@H](O)[C@H](O)CNC(=O)c2cc(C)c(O)c(C)c2)O[C@@](CCN2CCOC[C@@]23CCN(C(=O)C2CCCCC2(F)F)C3)(C(=O)O)C[C@@H]1O (stereo partly drawn) [A-070] |  | 31 | 12.0
4 | CC(=O)N[C@H]1[C@H]([C@H](O)[C@H](O)CNC(=O)c2ccc(N3CCN(C)CC3)cc2)O[C@@](CCN2CCOC[C@@]23CCN(C(=O)OC(C)(C)C)C3)(C(=O)O)C[C@@H]1O [A-143] |  | 334 | 7.8
5 | CC(=O)N[C@H]1[C@H]([C@H](O)[C@H](O)CNC(=O)c2cc(C)c(O)c(C)c2)O[C@@](C/C=C/c2ccccc2CNC(=O)OC(C)(C)C)(C(=O)O)C[C@@H]1O [A-288] | 5.3 | 2680 | 
6 | Cc1ccc(CN(C)C(=O)C2CCCOC2)cc1/C=C/C[C@]1(C(=O)O)C[C@H](O)[C@@H](NC(=O)Cn2cc(C3CCCCC3)nn2)[C@H]([C@H](O)[C@H](O)CNC(=O)c2cc(C)c(O)c(C)c2)O1 (stereo partly drawn) [A-287] | 6.0 | 1160 | 
7 | CC(=O)N[C@H]1[C@H]([C@H](O)[C@H](O)CNC(=O)c2cc(C)on2)O[C@@](CCN2CCOC[C@@]23CCN(C(=O)OC(C)(C)C)C3)(C(=O)O)C[C@@H]1O [A-188] |  | 2080 | 4.5
8 | CC(=O)N[C@H]1[C@H]([C@H](O)[C@H](O)CNC(=O)c2cc(C)c(O)c(C)c2)O[C@@](CC2OC(C)(C)O[C@H]2c2cccc(NC(=O)CC(C)(C)C)c2)(C(=O)O)C[C@@H]1O (stereo partly drawn) [A-303] | 4.9 | 1500 | 
9 | CC(=O)N[C@H]1[C@H]([C@H](O)[C@H](O)CNC(=O)c2ccc3[nH]cnc3c2)O[C@@](CCN2CCOC[C@@]23CCN(C(=O)OC(C)(C)C)C3)(C(=O)O)C[C@@H]1O [A-135] |  | 101 | 9.6
10 | Cc1cc2cc(C)c1OCCCOC[C@H](NC(=O)C1CCCOC1)COC/C=C/C[C@]1(C(=O)O)C[C@H](O)[C@@H](NC(=O)Cn3cc(C4CCCCC4)nn3)[C@@H](O1)[C@H](O)[C@H](O)CNC2=O (stereo partly drawn) [A-335] | 6.4 | 601 | 
11 | CC(=O)N[C@H]1[C@H]([C@H](O)[C@H](O)CNC(=O)c2ccc3ncccc3n2)O[C@@](CCN2CCOC[C@@]23CCN(C(=O)OC(C)(C)C)C3)(C(=O)O)C[C@@H]1O [A-114] |  | 22 | 12.4
12 | CC(=O)N[C@H]1[C@H]([C@H](O)[C@H](O)CNC(=O)c2cc(C)c(O)c(C)c2)O[C@@](CCN2C(C)CCC23CCN(C(=O)OC(C)(C)C)C3)(C(=O)O)C[C@@H]1O (stereo partly drawn) [A-025] |  | 115 | 10.0
13 | CC(=O)N[C@H]1[C@H]([C@H](O)[C@H](O)CNC(=O)c2cc(C)c(O)c(C)c2)O[C@@](CCN2CCOC[C@@]23CCN(C(=O)C2CC(C)(C)C2)C3)(C(=O)O)C[C@@H]1O [A-080] |  | 68 | 10.2
14 | CCc1cccc(C(=O)NC[C@@H](O)[C@@H](O)[C@@H]2O[C@@](CCN3CCOC[C@@]34CCN(C(=O)OC(C)(C)C)C4)(C(=O)O)C[C@H](O)[C@H]2NC(C)=O)c1 [A-155] |  | 200 | 10.1
15 | CC(=O)N[C@H]1[C@H]([C@H](O)[C@H](O)CNC(=O)c2cc(C)c(O)c(C)c2)O[C@@](C/C=C/c2cccc(CNC(=O)C3CCC(Nc4cnccn4)CC3)c2)(C(=O)O)C[C@@H]1O (stereo partly drawn) [A-247] | 8.5 | 353 | 
